Experiments:
Assay in all cases: relative viability (nuclei count vs DMSO), 5 days (fraction); higher = more cells survive
[1] = compound: CCC1=CN=CN=C1N2CCN(CC2)CC3=NC4=C(N3)C=C(C=C4)C(F)(F)F + C[C@]1(O)C[C@@H](c2nc(-c3ccc4ccc(-c5ccccc5)nc4c3)c3c(N)nccn32)C1 [Linsitinib] (partner 1 µM)
Summary of the method: (§1)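 Lung cancer cell lines were seeded in 1536-well plates and dosed by pin tool the next day, with either a single drug or a fixed anchor-drug dose combined with five library-drug doses (not always all listed) spaced in √10 steps. Five days later, one step fixed the cells and stained their nuclei (final 0.05% Triton X-100, 1% formaldehyde, 1 ug/ml Hoechst), and nuclei were counted on 4× images. Relative viability is the nuclei count in treated wells divided by the count in vehicle wells, and each value is the median of duplicate plates.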

[2] = compound: CCn1c(-c2nonc2N)nc2cnc(Oc3cccc(NC(=O)c4ccc(OCCN5CCOCC5)cc4)c3)cc21 + CC1(C)CCC(c2ccc(Cl)cc2)=C(CN2CCN(c3ccc(C(=O)NS(=O)(=O)c4ccc(N[C@H](CCN5CCOCC5)CSc5ccccc5)c(S(=O)(=O)C(F)(F)F)c4)cc3)CC2)C1 [Navitoclax] (partner 0.5 µM)
Summary of the method: as §1

[3] = compound: CCn1c(-c2nonc2N)nc2cnc(Oc3cccc(NC(=O)c4ccc(OCCN5CCOCC5)cc4)c3)cc21 + COc1cccc2cc(-c3nc([C@H]4CC[C@H](C(=O)O)CC4)n4ncnc(N)c34)[nH]c12 [OSI-027] (partner 0.5 µM)
Summary of the method: as §1

[4] = compound: CCn1c(-c2nonc2N)nc2cnc(Oc3cccc(NC(=O)c4ccc(OCCN5CCOCC5)cc4)c3)cc21 + C[C@@H](Oc1cc(-c2cnn(C3CCNCC3)c2)cnc1N)c1c(Cl)ccc(F)c1Cl [Crizotinib] (partner 1 µM)
Summary of the method: as §1

Cell Line: UMC-11
- relative viability ([1]; first compound 0.04 µM): 1.03
- relative viability ([1]; first compound 0.1265 µM): 1.02
- relative viability ([1]; first compound 0.4 µM): 1.03
- relative viability ([1]; first compound 1.265 µM): 0.958
- relative viability ([1]; first compound 4 µM): 0.944
- relative viability ([2]; first compound 0.04 µM): 0.349
- relative viability ([2]; first compound 0.1265 µM): 0.314
- relative viability ([2]; first compound 0.4 µM): 0.313
- relative viability ([2]; first compound 1.265 µM): 0.151
- relative viability ([2]; first compound 4 µM): 0.144
- relative viability ([3]; first compound 0.04 µM): 0.44
- relative viability ([3]; first compound 0.1265 µM): 0.41
- relative viability ([3]; first compound 0.4 µM): 0.355
- relative viability ([3]; first compound 1.265 µM): 0.208
- relative viability ([3]; first compound 4 µM): 0.179
- relative viability ([4]; first compound 0.04 µM): 0.924
- relative viability ([4]; first compound 0.1265 µM): 0.743
- relative viability ([4]; first compound 0.4 µM): 0.577
- relative viability ([4]; first compound 1.265 µM): 0.135
- relative viability ([4]; first compound 4 µM): 0.121

Reference: the supplement of paper PMC10307832
